Where a chain is given by its changes, count along the chain named.
Tests used:
[1] = target: T1, hA1AR G279S^7.44 (Homo sapiens, UniProt P30542, G279S); conditions: [35S]GTPγS; ratio over basal activity of wild type hA1AR
T1 sequence (P30542 1-326 G279S): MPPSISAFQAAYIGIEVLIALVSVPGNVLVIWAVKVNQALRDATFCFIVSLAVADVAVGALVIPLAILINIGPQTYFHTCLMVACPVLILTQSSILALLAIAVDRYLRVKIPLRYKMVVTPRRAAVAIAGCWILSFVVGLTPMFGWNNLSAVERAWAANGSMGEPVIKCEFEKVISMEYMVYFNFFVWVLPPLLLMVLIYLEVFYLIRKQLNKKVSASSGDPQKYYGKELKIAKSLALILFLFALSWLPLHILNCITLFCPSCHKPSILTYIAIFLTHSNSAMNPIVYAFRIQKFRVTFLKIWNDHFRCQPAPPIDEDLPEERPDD
Procedure: (§1) Transient transfection of CHO cells with wild type or mutated hA1AR plasmid constructs was performed using a polyethylenimine (PEI) method. Cells were seeded in 10-cm culture dishes to achieve 50–60% confluency 24 h prior to transfection. On the day of transfection, cells were transfected with a PEI: DNA ratio of 3:1 and a plasmid DNA amount of 10 μg/dish. Moreover, 24 h post-transfection, the medium was refreshed, and 48 h after transfection, cells were collected and membranes were prepared as previously described. Membranes were aliquoted in 250 or 100 μL and stored at −80 °C. Membrane protein concentrations were determined using the BCA method.
(§2) [^35S]GTPγS binding assays were adapted from a previously published method. […] Then, 20 µL of [^35S]GTPγS (final concentration of 0.3 nM) was added to each well, followed by 90 min of incubation at 25 °C. Incubations were terminated and filter-bound radioactivity was measured as described above.
(§3) All experimental data were analyzed by GraphPad Prism 7.0 or 8.0 (GraphPad Software Inc., San Diego, CA, USA). Data from yeast liquid growth and [^35S]GTPγS binding assays were analyzed by non-linear regression using “log (agonist) vs. response (three parameters)” or “log (inhibitor) vs. response (three parameters)” to obtain potency (EC50), inhibitory potency (IC50), and efficacy (Emax or Imax) values. The radioligand displacement curves were obtained from a statistically preferred one-site or two-site binding model. pKi values were calculated from pIC50 values using the Cheng–Prusoff equation, where KD values were obtained from the homologous competition assays from this study and calculated by non-linear regression using “one site–homologous” [62].

[2] = target: T2, hA1AR L134F^4.52 (Homo sapiens, UniProt P30542, L134F); conditions: [35S]GTPγS; ratio over basal activity of wild type hA1AR
T2 sequence (P30542 1-326 L134F): T1 sequence (P30542 1-326 G279S) with L134F, S279G
Procedure: as §1, §2, §3

[3] = target: T3, hA1AR S246T^6.47 (Homo sapiens, UniProt P30542, S246T); conditions: [35S]GTPγS; ratio over basal activity of wild type hA1AR
T3 sequence (P30542 1-326 S246T): T1 sequence (P30542 1-326 G279S) with S246T, S279G
Procedure: as §1, §2, §3

[4] = target: T4, hA1AR H78L^3.23 (Homo sapiens, UniProt P30542, H78L); conditions: [35S]GTPγS; ratio over basal activity of wild type hA1AR
T4 sequence (P30542 1-326 H78L): T1 sequence (P30542 1-326 G279S) with H78L, S279G
Procedure: as §1, §2, §3

[5] = target: T5, hA1AR W188C^5.46 (Homo sapiens, UniProt P30542, W188C)
T5 sequence (P30542 1-326 W188C): T1 sequence (P30542 1-326 G279S) with W188C, S279G
Procedure: as §1, §2, §3

[6] = target: T6, wild type hA1AR (Homo sapiens, UniProt P30542); conditions: [35S]GTPγS; ratio over basal activity of wild type hA1AR
T6 sequence (P30542 1-326): T1 sequence (P30542 1-326 G279S) with S279G
Procedure: as §1, §2, §3

[7] = test system: A1AR P86F^3.31; design: method as in PMID 9920910; conditions: result in words; cited from earlier work

Q: Which Emax [1] does the source give for `OC[C@H]1O[C@@H](n2cnc3c(NC4CCCC4)ncnc32)[C@H](O)[C@@H]1O` [CPA, N^6-cyclopentyladenosine] here?
A: Its Emax is 1.57 ± 0.20.

Q: What about the Emax [2] of the same molecule?
A: The Emax was 1.48 ± 0.24.

Q: What about the Emax [3] of the same molecule?
A: The Emax was 1.21 ± 0.10.

Q: And the Emax [4]?
A: Its Emax is 1.40 ± 0.10.

Q: And the Emax ([5]; [35S]GTPγS, ratio over basal activity of wild type hA1AR)?
A: The Emax was 1.94 ± 0.02.

Q: What about the “decrease in the potency value versus wild type” value ([5]; mammalian system) of the same molecule?
A: The value was 10 fold.

Q: What about the Emax [6] of the same molecule?
A: Its Emax is 1.48 ± 0.13.

Q: What about the CPA binding [7] of the same molecule?
A: Its CPA binding is “abolished”.
